Data set [1] is described as follows: Rotating disk electrode and cyclic voltammetry on glassy carbon, 1 mM compound in 1 M sulfuric acid. Type of data set: physicochemical. Conditions: for Diffusion Coefficient, (cm^2 s^-1): Levich plot; for Transfer Coefficient, an: Tafel analysis; for Exchange Current Density, (A cm^-2): glassy carbon RDE; for Rate Constant, k°: obtained from exchange current density. Here is the method:
Measurement of kinetic parameters and diffusion coefficients was conducted in a three-electrode cell consisting of a rotating glassy carbon disk working electrode, a platinum wire counter electrode, and a mercury/mercuric sulfate reference electrode (E° = +0.65 V). […] The solutions were de-aerated and kept under a blanket of argon gas throughout all the experiments. All measurements were conducted in the potentiodynamic mode (Versastat 300 potentiostat) at a scan rate of 5 mV s^-1 over a range of rotation rates (500 rpm to 3000 rpm). Impedance measurements were also made at each rotation rate. Cyclic voltammetry was conducted on a static glassy carbon electrode at a scan rate of 50 mV s^-1.
Where n is the number of electrons transferred, F, the Faraday constant, A, electrode area, Do, the diffusion coefficient, v, the kinematic viscosity of the solution and C*, the bulk concentration of the reactants. For n = 2, an active electrode area of 0.1925 cm^2, and a kinematic viscosity of the electrolyte of 0.01 cm^2 s^-1, we were able to evalulate the diffusion coefficient from the slope of the straight line plots in FIG. 11D.
To determine the kinetic parameters for the charge-transfer process, namely the rate constant and the apparent transfer coeffcient, the logarithm of the kinetic current (after correction for mass-transport losses) was plotted against the observed overpotentials greater than 100 mV, where the Tafel equation is applicable (Eq. 4 and FIG. 11E).
Where I is the current, Ilim is the limiting current, Iex is the exchange current density, Co and CR are the concentration of the oxidized and reduced species at the surface of the electrode, Co* and CR* are the bulk concentrations of the oxidized and reduced species, α is the transfer coefficient, n is the number of electrons transferred, F is the Faraday constant, E-Erev is the overpotential, R is the gas constant, and T is the temperature. The rate constant, ko , was obtained from the exchange current density (Eq. 5).
Where n is the number of electrons transferred, F, the Faraday constant, A, electrode area, Do, the diffusion coefficient, v, the kinematic viscosity of the solution and C*, the bulk concentration of the reactants. For n = 2, an active electrode area of 0.1925 cm^2, and a kinematic viscosity of the electrolyte of 0.01 cm^2 s^-1, we were able to evalulate the diffusion coefficient from the slope of the straight line plots.
To determine the kinetic parameters for the charge-transfer process, namely the rate constant and the apparent transfer coeffcient, the logarithm of the kinetic current (after correction for mass-transport losses) was plotted against the observed overpotentials greater than 100 mV, where the Tafel equation derived from the Butler-Volmer Equation is applicable : […]
Where I is the current, Ilim is the limiting current, Iex is the exchange current density, Co and CR are the concentration of the oxidized and reduced species at the surface of the electrode, Co* and CR* are the bulk concentrations of the oxidized and reduced species, α is the transfer coefficient, n is the number of electrons transferred, F is the Faraday constant, E-Erev is the overpotential, R is the gas constant, and T is the temperature. The rate constant, ko , was obtained from the exchange current density using the relationship

Data set [2] in a line: Solubility.
Setting [3] is: Table 5, MSE E°=+0.65 V, 1 M sulfuric acid.

This is an account of results in patent publication US20230113398A1, “INEXPENSIVE METAL-FREE ORGANIC REDOX FLOW BATTERY (ORBAT) FOR GRID-SCALE STORAGE” (UNIVERSITY OF SOUTHERN CALIFORNIA, priority 2013, published 2023).

Converted amounts (≈) assume the structure as drawn. “And” between values parts separate entries of the source, which are not always exact repeats. Equal values may be shown once.

Take `c1ccc2nccnc2c1` [Quinoxaline]: the “Diffusion Coefficient (cm2/sec)” value in data set [1] (Table 7) is 1.36E-6 cm2/sec and 1.09E-6 cm2/sec. This molecule had a solubility in data set [2] (Solubility, Table 7) greater than 7000 mM.

Regarding `O=C1C=C(S(=O)(=O)O)C=C(S(=O)(=O)O)C1=O` [1,2-benzoquinone-3,5-disulfonic acid, 1,2-benzoquinone-3,5-disulfonic acid], in data set [1] (1 M sulfuric acid), the “Standard Reduction Potentials: E°(formal) Measured” value was 0.87 and the “Standard Reduction Potentials: Experimental (E½ values) vs. NHE” value was found to be 1.1. The “kinetic reversibility from cyclic voltammograms” value in data set [1] (1 M sulfuric acid, glassy carbon) is given as “rapid oxidation step, but a slower reduction step”. In data set [1] (Table 5, 1 M sulfuric acid), the “Diffusion Coefficient, (cm^2 s^-1)” value is 3.80E-6 cm^2 s^-1 and the “Exchange Current Density, (A cm^-2)” value was 3.00E-6 A cm^-2. Also, the “E½ vs. MSE, Volt” value in data set [1] (setting [3]) was determined as 0.45 Volt. Besides, in data set [1] (Table 5), the “Transfer Coefficient, an” value is listed as 0.582 and the “Rate Constant, k°” value is 0.000155 cm/s. Also, the solubility in data set [2] (Solubility, Table 5) is 1000 mM (≈ 268 mg/mL).

Take `O=S(=O)(O)c1cc(O)ccc1O` [Hydroquinone sulfonic acid]: in data set [1] (1 M sulfuric acid), the “Standard Reduction Potentials: E°(formal) Measured” value was determined as 0.70 and the “Standard Reduction Potentials: Experimental (E½ values) vs. NHE” value is given as 0.82. In data set [1] (Table 5, 1 M sulfuric acid), the “Diffusion Coefficient, (cm^2 s^-1)” value worked out at 4.28E-6 cm^2 s^-1 and the “Exchange Current Density, (A cm^-2)” value amounted to 1.10E-5 A cm^-2. Also, the “E½ vs. MSE, Volt” value in data set [1] (setting [3]) came out at 0.17 Volt. In addition, in data set [1] (Table 5), the “Transfer Coefficient, an” value came to 0.418 and the “Rate Constant, k°” value amounted to 0.000552 cm/s. Also, in data set [1] (Table 7), the “Diffusion Coefficient (cm2/sec)” value came out at 4.28E-6 cm2/sec; the “Exchange Current density (A/cm^2)” value came out at 2.59E-5 A/cm^2; the “Tafel Slope, mV/decade, dη/d(log I)” value turned out to be 63 mV/decade. Besides, the “E½ vs. MSE, Volt” value in data set [1] (Table 7, 1 M sulfuric acid) was 0.17 Volt. Also, in data set [2] (Solubility, Table 5), the solubility is 800 mM (≈ 152 mg/mL). This molecule showed a solubility in data set [2] (Solubility, Table 7) of 800 mM (≈ 152 mg/mL).

With `O=C1c2ccc(S(=O)(=O)O)cc2C(=O)c2cc(S(=O)(=O)O)ccc21` [2,7 Anthraquinone disulfonic acid], in data set [1] (Table 7), the “Diffusion Coefficient (cm2/sec)” value is recorded as 1.82E-6 cm2/sec and the “Exchange Current density (A/cm^2)” value is listed as 7.82E-7 A/cm^2. The “E½ vs. MSE, Volt” value in data set [1] (Table 7, 1 M sulfuric acid) is recorded as -0.57 Volt.

`O=c1[nH][nH]c(=O)c2ccccc12` [Phthalyl hydrazide]: in data set [1] (Table 7), the “Diffusion Coefficient (cm2/sec)” value was 1.07E-6 cm2/sec; the “Exchange Current density (A/cm^2)” value was determined as 3.03E-6 A/cm^2; the “Tafel Slope, mV/decade, dη/d(log I)” value is given as 40 mV/decade. Further, the “E½ vs. MSE, Volt” value in data set [1] (Table 7, 1 M sulfuric acid) is 0.5 Volt.

Take `Oc1ccc(O)cc1` [Hydroquinone]: in data set [1] (1 M sulfuric acid), the “Standard Reduction Potentials: E°(formal) Measured” value turned out to be 0.68 and the “Standard Reduction Potentials: Experimental (E½ values) vs. NHE” value is on record as 0.67. Moreover, in data set [1] (Table 5, 1 M sulfuric acid), the “Diffusion Coefficient, (cm^2 s^-1)” value is 5.03E-6 cm^2 s^-1 and the “Exchange Current Density, (A cm^-2)” value came to 5.09E-5 A cm^-2. Also, the “E½ vs. MSE, Volt” value in data set [1] (setting [3]) was 0.02 Volt. In data set [1] (Table 5), the “Transfer Coefficient, an” value is reported as 0.508 and the “Rate Constant, k°” value was 0.00236 cm/s. In data set [1] (Table 7), the “Diffusion Coefficient (cm2/sec)” value was 5.03E-6 cm2/sec and 5.4E-6 cm2/sec; the “Exchange Current density (A/cm^2)” value worked out at 9.17E-5 A/cm^2; the “Tafel Slope, mV/decade, dη/d(log I)” value was determined as 110 mV/decade. Besides, the “E½ vs. MSE, Volt” value in data set [1] (Table 7, 1 M sulfuric acid) was found to be 0.02 Volt. The molecule further gave a solubility in data set [2] (Solubility, Table 5) of 530 mM (≈ 58.4 mg/mL). The same molecule showed a solubility in data set [2] (Solubility, Table 7) of 530 mM (≈ 58.4 mg/mL).

For the molecule Maleic hydrazide, in data set [1] (Table 7), the “Diffusion Coefficient (cm2/sec)” value turned out to be 6.57E-6 cm2/sec; the “Exchange Current density (A/cm^2)” value amounted to 5.86E-6 A/cm^2; the “Tafel Slope, mV/decade, dη/d(log I)” value is reported as 54 mV/decade. Besides, in data set [1] (Table 7, 1 M sulfuric acid), the “E½ vs. MSE, Volt” value is recorded as 0.6 Volt.

For the molecule Hydroquinone disulfonic acid, in data set [1] (Table 7), the “Diffusion Coefficient (cm2/sec)” value is 3.80E-6 cm2/sec and 4.04E-6 cm2/sec; the “Exchange Current density (A/cm^2)” value was 3.47E-6 A/cm^2; the “Tafel Slope, mV/decade, dη/d(log I)” value was determined as 123 mV/decade. The “E½ vs. MSE, Volt” value in data set [1] (Table 7, 1 M sulfuric acid) is listed as 0.45 Volt. In data set [2] (Table 7), this molecule registered a solubility of 1000 mM.

`O=C1c2cccc(S(=O)(=O)O)c2C(=O)c2c1cccc2S(=O)(=O)O` [1,8 Anthraquinone disulfonic acid]: in data set [1] (Table 7), the “Diffusion Coefficient (cm2/sec)” value was 3.39E-6 cm2/sec and the “Exchange Current density (A/cm^2)” value is 1.60E-6 A/cm^2. In addition, in data set [1] (Table 7, 1 M sulfuric acid), the “E½ vs. MSE, Volt” value is -0.70 Volt.

A word on the solubility: it is the concentration that dissolves in the medium under given conditions. Read a high solubility as a readily soluble substance.
